Assay results reported in patent US11026916B2, “Treatment for non-alcoholic fatty liver diseases” (DSM IP ASSETS B.V., priority 2014, dated 2021).

What was measured:
Format in all cases: cell-based, human
CCL4/MIP-1beta = CCL4/MIP-1beta secretion by LPS-stimulated leukocytes (mononuclear cells), multiplex cytokine kit; settings: for CCL4/MIP-1 b reduction (in words): pre-incubating cells prior to the stimulation with LPS
Experimental: (§1) Leukocytes are obtained from healthy donors. Mononuclear cells (MNC) are purified by Ficoll-Isopaque gradient centrifugation. Cells (at 3-8×10^6 cells/mL) are cultured in phenol-red free RPMI 1640, supplemented with 0.25% FBS, 0.1 mM NEAA, 50 U/mL penicillin, 50 μg/mL streptomycin and 5×10^-5 M 2-mercaptoethanol. Cells are stimulated with LPS (100 ng/mL) and IFN-γ (20 U/mL) for 2-24 h. Multiparametric kits for determination of cytokines and chemokines are purchased from BIO-RAD Laboratories (Hercules, Calif.) and used in the LiquiChip Workstation IS 200 (Qiagen, Hilden, Germany). The data are evaluated with the LiquiChip Analyser software (Qiagen).
(§2) The algorithm developed by Chou and Tatalay is used to calculate synergistic effects (Chou, T-C. Et Tatalay, P. A simple Biol. Chem. 252, 6438-6442, 1977; Chou, T-C. Et Tatalay, P. Analysis of combined drug effects—A new look at a very old problem. Trends in Biological Sciences. November 1983, p 450-454, 1983). Interactions are quantified by the Combination Index (CI). Briefly, the % of inhibition of the concentration of each single substance alone or the mixture of both are determined. The affected fraction (fa) (values between 0 and 1) and unaffected fraction (fu) (1−fa), respectively, is calculated. For median-effect plots, log (fa/fu) is plotted against log (D), where D represents the concentration of each single compound alone or the mixture of both. Using CalcuSyn software (Biosoft, Ferguson, Mo.), which is based upon the method by Chou Et Tatalay, a CI is computed for every fraction affected: a CI<1 reflects synergistic inhibition of the respective inflammatory parameter; if CI=1 the substances have additive interactions; when CI>1 the interaction of substances reflects antagonism. It has also been observed that substances can have synergistic or antagonistic interactions at given concentrations or ratios, respectively (see e.g. Pappa et al. Quantitative combination effects between sulforaphane and 3,3′-[…] diindolylmethane on proliferation of human colon cancer cells in vitro. Carcinogenesis 28, 1471-77, 2007).
(§3) Cells are stimulated with LPS, an pathogen-derived component that induces inflammatory response, which is reflected in the expression of inflammatory genes and the secretion of cytokines, interleukins and chemokines (Table 1). LPS induces a massive increase of the secretion of inflammatory mediators such as TNF-alpha. Concomitantly, inflammatory mediators are secreted. These parameters are modulated by pre-incubating cells with α-tocopherol or ω-3 PUFA prior to the stimulation with LPS. For instance, the pro-inflammatory cytokine […] is reduced by 29% and 64%, respectively (Table 1a). […] Thus, the substances reduces the extent of the inflammatory stress in cells that respond to inflammatory stimuli.

TNF-alpha = TNF-alpha secretion by LPS-stimulated leukocytes (mononuclear cells), multiplex cytokine kit; settings: for % reduction of TNF-alpha: pre-incubating cells prior to the stimulation with LPS, concentration not stated in the sentence (Table 1a)
Experimental: as §1, §2, §3

IL-1beta = IL-1beta secretion by LPS-stimulated leukocytes (mononuclear cells), multiplex cytokine kit; settings: for IL-1beta reduction (in words): pre-incubating cells prior to the stimulation with LPS
Experimental: as §1, with “(Qiagen). […]” for “(Qiagen).”
as §3

For `Cc1c(C)c2c(c(C)c1O)CC[C@@](C)(CCC[C@H](C)CCC[C@H](C)CCCC(C)C)O2` [AT, α-tocopherol], the “CCL4/MIP-1 b reduction (in words)” value (CCL4/MIP-1beta) was “significantly reduced”, the “% inhibition (vs LPS) of CCL4” value (CCL4/MIP-1beta; single substance 10 μM + LPS) was 7% and the “CCL4 pg/mL ± SD” value (CCL4/MIP-1beta; single substance 10 μM + LPS) was 91400 ± 5657 pg/mL. The “% inhibition (vs LPS) of CCL4” value (CCL4/MIP-1beta; single substance 50 μM + LPS) was 15%, the “CCL4 pg/mL ± SD” value (CCL4/MIP-1beta; single substance 50 μM + LPS) was 83900 ± 3111 pg/mL and the “% inhibition (vs LPS) of CCL4” value (CCL4/MIP-1beta; single substance 200 μM + LPS) was 11%. The “CCL4 pg/mL ± SD” value (CCL4/MIP-1beta; single substance 200 μM + LPS) was 87950 ± 3165 pg/mL, the “% reduction of TNF-alpha” value (TNF-alpha) was 29% and the “% inhibition (vs LPS) of TNF-alpha” value (TNF-alpha; single substance 10 μM + LPS) was −4%. For the same molecule, the “TNF-alpha pg/mL ± SD” value (TNF-alpha; single substance 10 μM + LPS) was 5505 ± 177 pg/mL, the “% inhibition (vs LPS) of TNF-alpha” value (TNF-alpha; single substance 50 μM + LPS) was 29% and the “TNF-alpha pg/mL ± SD” value (TNF-alpha; single substance 50 μM + LPS) was 3755 ± 21 pg/mL. For the same molecule, the “% inhibition (vs LPS) of TNF-alpha” value (TNF-alpha; single substance 200 μM + LPS) was 27%, the “TNF-alpha pg/mL ± SD” value (TNF-alpha; single substance 200 μM + LPS) was 3870 ± 14 pg/mL and the “IL-1beta reduction (in words)” value (IL-1beta) was “significantly reduced”. For the same molecule, the “% inhibition (vs LPS) of IL-1beta” value (IL-1beta; single substance 10 μM + LPS) was −7%, the “IL-1beta pg/mL ± SD” value (IL-1beta; single substance 10 μM + LPS) was 6770 ± 438 pg/mL and the “% inhibition (vs LPS) of IL-1beta” value (IL-1beta; single substance 50 μM + LPS) was 9%. The “IL-1beta pg/mL ± SD” value (IL-1beta; single substance 50 μM + LPS) was 5735 ± 134 pg/mL, the “% inhibition (vs LPS) of IL-1beta” value (IL-1beta; single substance 200 μM + LPS) was 14% and the “IL-1beta pg/mL ± SD” value (IL-1beta; single substance 200 μM + LPS) was 5430 ± 113 pg/mL.

In the case of `CC/C=C\C/C=C\C/C=C\C/C=C\C/C=C\C/C=C\CCC(=O)O` [DHA, (all-Z)-4,7,10,13,16,19-docosahexaenoic acid], the “CCL4/MIP-1 b reduction (in words)” value (CCL4/MIP-1beta) is reported as “significantly reduced”, the “% inhibition (vs LPS) of CCL4” value (CCL4/MIP-1beta; single substance 10 μM + LPS) is reported as 32% and the “CCL4 pg/mL ± SD” value (CCL4/MIP-1beta; single substance 10 μM + LPS) is reported as 79995 ± 3465 pg/mL. The “% inhibition (vs LPS) of CCL4” value (CCL4/MIP-1beta; single substance 20 μM + LPS) was 62%, the “CCL4 pg/mL ± SD” value (CCL4/MIP-1beta; single substance 20 μM + LPS) was 67000 ± 7523 pg/mL and the “% inhibition (vs LPS) of CCL4” value (CCL4/MIP-1beta; single substance 50 μM + LPS) was 62%. For the same molecule, the “CCL4 pg/mL ± SD” value (CCL4/MIP-1beta; single substance 50 μM + LPS) was 37600 ± 778 pg/mL, the “% reduction of TNF-alpha” value (TNF-alpha) was 64% and the “% inhibition (vs LPS) of TNF-alpha” value (TNF-alpha; single substance 10 μM + LPS) was 60%. For the same molecule, the “TNF-alpha pg/mL ± SD” value (TNF-alpha; single substance 10 μM + LPS) was 3190 ± 14 pg/mL, the “% inhibition (vs LPS) of TNF-alpha” value (TNF-alpha; single substance 20 μM + LPS) was 64% and the “TNF-alpha pg/mL ± SD” value (TNF-alpha; single substance 20 μM + LPS) was 3400 ± 523 pg/mL. The “% inhibition (vs LPS) of TNF-alpha” value (TNF-alpha; single substance 50 μM + LPS) was 59%, the “TNF-alpha pg/mL ± SD” value (TNF-alpha; single substance 50 μM + LPS) was 3105 ± 163 pg/mL and the “IL-1beta reduction (in words)” value (IL-1beta) was “significantly reduced”. For the same molecule, the “% inhibition (vs LPS) of IL-1beta” value (IL-1beta; single substance 10 μM + LPS) was 14%, the “IL-1beta pg/mL ± SD” value (IL-1beta; single substance 10 μM + LPS) was 5405 ± 742 pg/mL and the “% inhibition (vs LPS) of IL-1beta” value (IL-1beta; single substance 20 μM + LPS) was 23%. The “IL-1beta pg/mL ± SD” value (IL-1beta; single substance 20 μM + LPS) was 4865 ± 1633 pg/mL, the “% inhibition (vs LPS) of IL-1beta” value (IL-1beta; single substance 50 μM + LPS) was 77% and the “IL-1beta pg/mL ± SD” value (IL-1beta; single substance 50 μM + LPS) was 1440 ± 71 pg/mL.
